Data published in patent US12209087B2, “AKT1 modulators” (Alterome Therapeutics, Inc., priority 2022, dated 2025).
pIC50: −log10 of the molar value.

biological target: T1, full length AKT E17K (Homo sapiens, UniProt P31749, E17K); test: NanoBRET Target Engagement (TE) Assay; assay type: cell-based; settings: competitive displacement of tracer in cells, read-out: AKT1 E17K IC50
T1 construct: host or cells: HEK-293 (ATCC CRL-1573)
Summary of the method: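 Compound and tracer incubated 2 h before luminescence at donor 450 nm and acceptor 600 nm, with extracellular signal inhibited. EC50 by sigmoidal variable-slope regression.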

T1 sequence (P31749 whole entry E17K): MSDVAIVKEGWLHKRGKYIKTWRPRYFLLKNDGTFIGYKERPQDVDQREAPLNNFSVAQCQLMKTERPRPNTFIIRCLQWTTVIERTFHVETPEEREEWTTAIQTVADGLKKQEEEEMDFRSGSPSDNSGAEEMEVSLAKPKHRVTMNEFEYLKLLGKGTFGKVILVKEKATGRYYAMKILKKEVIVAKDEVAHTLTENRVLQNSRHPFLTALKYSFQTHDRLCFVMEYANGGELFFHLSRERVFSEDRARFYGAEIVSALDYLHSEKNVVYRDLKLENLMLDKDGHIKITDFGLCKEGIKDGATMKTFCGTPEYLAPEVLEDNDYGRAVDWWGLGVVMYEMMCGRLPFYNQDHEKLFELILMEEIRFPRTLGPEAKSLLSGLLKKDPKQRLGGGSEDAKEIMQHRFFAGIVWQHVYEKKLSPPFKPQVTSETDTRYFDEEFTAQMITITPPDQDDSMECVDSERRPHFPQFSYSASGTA

SMILES | pIC50
Cn1cc(-c2ccc3nc(-c4cccnc4N)n(-c4ccc(CN5CCN(c6ccnc(C#N)n6)CC5)cc4)c3n2)ccc1=O [Example 348, 4-(4-(4-(2-(2-Aminopyridin-3-yl)-5-(1-methyl-6-oxo-1,6-dihydropyridin-3-yl)-3H-imidazo[4,5-b]pyridin-3-yl)benzyl)piperazin-1-yl)pyrimidine-2-carbonitrile] | 6.22 to 7.22
N#Cc1nccc(N2CCN(Cc3ccc(-n4c(-c5cccnc5N)nc5ccc(-c6ccccc6Cl)nc54)cc3)CC2)n1 [Example 324, 4-(4-(4-(2-(2-Aminopyridin-3-yl)-5-(2-chlorophenyl)-3H-imidazo[4,5-b]pyridin-3-yl)benzyl)piperazin-1-yl)pyrimidine-2-carbonitrile] | > 7.82

Now from value to compound:

pIC50 | SMILES
> 7.82 | Cc1cc(-c2ccc3nc(-c4cccnc4N)n(-c4ccc(CN5CCC(Nc6ccnc(C#N)n6)CC5)cc4)c3n2)[nH]n1 [Example 465, 4-((1-(4-(2-(2-Aminopyridin-3-yl)-5-(3-methyl-1H-pyrazol-5-yl)-3H-imidazo[4,5-b]pyridin-3-yl)benzyl)piperidin-4-yl)amino)pyrimidine-2-carbonitrile]
> 7.82 | [2H]C1(Nc2ccnc(C#N)n2)CCN(Cc2ccc(-n3c(-c4cccnc4N)nc4ccc(-c5ccc(F)cc5)nc43)cc2)CC1 [Example 451, 4-((1-(4-(2-(2-Aminopyridin-3-yl)-5-(4-fluorophenyl)-3H-imidazo[4,5-b]pyridin-3-yl)benzyl)piperidin-4-yl-4-d)amino)pyrimidine-2-carbonitrile]
> 7.82 | Cc1ccc(-c2ccc3nc(-c4cccnc4N)n(-c4ccc(CN5CCC(Nc6ccnc(C#N)n6)CC5)cc4)c3n2)cc1 [Example 529, 4-((1-(4-(2-(2-Aminopyridin-3-yl)-5-(p-tolyl)-3H-imidazo[4,5-b]pyridin-3-yl)benzyl)piperidin-4-yl)amino)pyrimidine-2-carbonitrile]
> 7.82 | N#Cc1nccc(NC2CCN(Cc3ccc(-n4c(-c5cccnc5N)nc5ccc(-c6ccnc(F)c6)nc54)cc3)CC2)n1 [Example 561, 4-((1-(4-(2-(2-Aminopyridin-3-yl)-5-(2-fluoropyridin-4-yl)-3H-imidazo[4,5-b]pyridin-3-yl)benzyl)piperidin-4-yl)amino)pyrimidine-2-carbonitrile]
> 7.82 | N#Cc1nccc(NC2CCN(Cc3ccc(-n4c(-c5cccnc5N)nc5ccc(-c6cnco6)nc54)cc3)CC2)n1 [Example 462, 4-((1-(4-(2-(2-Aminopyridin-3-yl)-5-(oxazol-5-yl)-3H-imidazo[4,5-b]pyridin-3-yl)benzyl)piperidin-4-yl)amino)pyrimidine-2-carbonitrile]
> 7.82 | N#Cc1nccc(NC2CCN(Cc3ccc(-n4c(-c5cccnc5N)nc5ccc(-c6cn[nH]n6)nc54)cc3)CC2)n1 [Example 613, 4-((1-(4-(2-(2-Aminopyridin-3-yl)-5-(2H-1,2,3-triazol-4-yl)-3H-imidazo[4,5-b]pyridin-3-yl)benzyl)piperidin-4-yl)amino)pyrimidine-2-carbonitrile]
> 7.82 | N#Cc1nccc(NC2CN(Cc3ccc(-n4c(-c5cccnc5N)nc5ccc(-c6ccc(F)cc6)nc54)cc3)C2)n1 [Example 443, 4-((1-(4-(2-(2-Aminopyridin-3-yl)-5-(4-fluorophenyl)-3H-imidazo[4,5-b]pyridin-3-yl)benzyl)azetidin-3-yl)amino)pyrimidine-2-carbonitrile]
> 7.82 | N#Cc1nccc(NC2CC3(C2)CN(Cc2ccc(-n4c(-c5cccnc5N)nc5ccc(-c6ccc(F)cc6)nc54)cc2)C3)n1 [Example 445, 4-((2-(4-(2-(2-Aminopyridin-3-yl)-5-(4-fluorophenyl)-3H-imidazo[4,5-b]pyridin-3-yl)benzyl)-2-azaspiro[3.3]heptan-6-yl)amino)pyrimidine-2-carbonitrile]

same assay, conditions: competitive tracer displacement in living cells, read-out: AKT1 E17K IC50

pIC50 | SMILES
5.00 to 6.22 | N#Cc1ccc(C(=O)N2CCN(Cc3ccc(-n4c(-c5cccnc5N)nc5cc(-c6ccccc6)cnc54)cc3)CC2)cn1 [Example 111, 5-(4-(4-(2-(2-Aminopyridin-3-yl)-6-phenyl-3H-imidazo[4,5-b]pyridin-3-yl)benzyl)piperazine-1-carbonyl)picolinonitrile]
> 7.82 | N#Cc1ncnc(N2CCN(Cc3ccc(-n4c(-c5cccnc5N)nc5ccc(-c6ccccc6)nc54)cc3)CC23CC3)n1 [Example 276, 4-(7-(4-(2-(2-aminopyridin-3-yl)-5-phenyl-3H-imidazo[4,5-b]pyridin-3-yl)benzyl)-4,7-diazaspiro[2.5]octan-4-yl)-1,3,5-triazine-2-carbonitrile]
6.22 to 7.22 | CC(=O)Nc1cccc(-c2ccc3nc(-c4cccnc4N)n(-c4ccc(CN5CCN(c6cccc(C#N)n6)CC5)cc4)c3n2)c1 [Example 39, N-(3-(2-(2-Aminopyridin-3-yl)-3-(4-((4-(6-cyanopyridin-2-yl)piperazin-1-yl)methyl)phenyl)-3H-imidazo[4,5-b]pyridin-5-yl)phenyl)acetamide]
7.22 to 7.82 | N#Cc1nccc(N2CCN(Cc3ccc(-n4c(-c5cccnc5N)nc5ccc(-c6ccccc6)nc54)cc3)CC23CC3)n1 [Example 198, 4-(7-(4-(2-(2-Aminopyridin-3-yl)-5-phenyl-3H-imidazo[4,5-b]pyridin-3-yl)benzyl)-4,7-diazaspiro[2.5]octan-4-yl)pyrimidine-2-carbonitrile]
5.00 to 6.22 | N#Cc1cnccc1C(=O)NCc1ccc(-n2c(-c3cccnc3N)nc3cccnc32)cc1 [Example 99, N-(4-(2-(2-Aminopyridin-3-yl)-3H-imidazo[4,5-b]pyridin-3-yl)benzyl)-3-cyanoisonicotinamide]
> 7.82 | N#Cc1ncnc(N2CCN(Cc3ccc(-n4c(-c5cccnc5N)nc5ccc(-c6ccccc6F)nc54)cc3)CC2)n1 [Example 312, 4-(4-(4-(2-(2-Aminopyridin-3-yl)-5-(2-fluorophenyl)-3H-imidazo[4,5-b]pyridin-3-yl)benzyl)piperazin-1-yl)-1,3,5-triazine-2-carbonitrile]
5.00 to 6.22 | N#Cc1ccc(N2CCN(Cc3ccc(-n4c(-c5cccnc5N)nc5cccnc54)cc3)CC2)cn1 [Example 14, 5-(4-(4-(2-(2-Aminopyridin-3-yl)-3H-imidazo[4,5-b]pyridin-3-yl)benzyl)piperazin-1-yl)picolinonitrile]
5.00 to 6.22 | N#Cc1cc(C(=O)NCc2ccc(-n3c(-c4cccnc4N)nc4cccnc43)cc2)ncn1 [Example 113, N-(4-(2-(2-Aminopyridin-3-yl)-3H-imidazo[4,5-b]pyridin-3-yl)benzyl)-6-cyanopyrimidine-4-carboxamide]
5.00 to 6.22 | N#Cc1cc(C(=O)N2CCN(Cc3ccc(-n4c(-c5cccnc5N)nc5cc(-c6ccccc6)cnc54)cc3)CC2)ccn1 [Example 137, 4-(4-(4-(2-(2-Aminopyridin-3-yl)-6-phenyl-3H-imidazo[4,5-b]pyridin-3-yl)benzyl)piperazine-1-carbonyl)picolinonitrile]
> 7.82 | N#Cc1nccc(N2CCN(Cc3ccc(-n4c(-c5cccnc5N)nc5ccc(-c6cccc(Cl)c6)nc54)cc3)CC2)n1 [Example 296, 4-(4-(4-(2-(2-Aminopyridin-3-yl)-5-(3-chlorophenyl)-3H-imidazo[4,5-b]pyridin-3-yl)benzyl)piperazin-1-yl)pyrimidine-2-carbonitrile]
> 7.82 | N#Cc1cc(N2CCN(Cc3ccc(-n4c(-c5cccnc5N)nc5ccc(-c6ccccc6)nc54)cc3)CC2)ncn1 [Example 78, 6-(4-(4-(2-(2-Aminopyridin-3-yl)-5-phenyl-3H-imidazo[4,5-b]pyridin-3-yl)benzyl)piperazin-1-yl)pyrimidine-4-carbonitrile]
